Experimental data as given in US20240199722A1, “NANOPLATFORM FOR TARGETING MACROPHAGE AND COMPOSITION FOR PREVENTION OR TREATMENT OF METASTATIC CANCER” (SEOUL NATIONAL UNIVERSITY R&DB FOUNDATION, priority 2021, published 2024).

Test system: macrophages at lung metastatic site
Assay: Early diagnosis of cancer metastasis in the 4T1-luc model: FDG-PET versus 111In-MSA-FL SPECT/CT (FIG. 8)
Type: in vivo, mouse
From the text: In order to verify the possibility of early diagnosis of cancer metastasis of the albumin-based nanoplatform conjugated with the mannosyl group, a model that may represent cancer metastasis was reproduced and confirmed through tissue staining whether it could actually reflect metastasis.
This animal model is known to naturally cause metastasis to secondary organs after transplanting cancer cells into mice, and is especially known to cause metastasis to the lung area, similar to the pattern of existing breast cancer.

Structure (SMILES): OC[C@H]1O[C@@H](O)[C@H]([18F])[C@@H](O)[C@@H]1O [FDG]
- time at which cancer metastasis could be diagnosed (day after modeling): 28 days
- nuclear medicine signal/image in the lung area before metastasis (imaging on days 7, 14, 21, 28): could hardly be confirmed
- uptake at the metastatic site, statistical significance (quantification FIG. 8(b)): statistically significant difference only on Day 28
